Paper PMC4490465 (2015)

Experiments:
[1] = system: Cognate DNA sequence (DNA, hairpin) CGCATATGGTATGTGCCGCGGAAAAACCGCGGCACATACCATATGCG; experiment: SPR, steady state, 1:1 fit; conditions: HBS-EP + 0.1% DMSO, pH 7.4, 25 °C
[2] = system: 3 bp mismatch (DNA, hairpin) CAGTCATGAGCATGGATGCGGAAAAACCGCATCCATGCTCATGACTG; experiment: SPR, steady state, 1:1 fit; conditions: HBS-EP + 0.1% DMSO, pH 7.4, 25 °C

| SMILES | Kd [1] | Kd [2] | Kd ([1]; apparent) |
| --- | --- | --- | --- |
| CC(=O)Nc1cn(C)c(C(=O)Nc2cn(C)c(C(=O)Nc3cc(C(=O)Nc4cc(C(=O)NCCCC(=O)Nc5cc(C(=O)Nc6cc(C(=O)Nc7cc(C(=O)Nc8cc(C(=O)NCCC(=O)NCCCN(C)C)n(C)c8)n(C)c7)n(C)c6)n(C)c5)n(C)c4)n(C)c3)n2)n1 | 1.6 ± 0.1 nM | 314 ± 160 nM |  |
| CN(C)CCCNC(=O)CCNC(=O)c1cc(NC(=O)c2cc(NC(=O)c3cc(NC(=O)c4cc(NC(=O)CCCNC(=O)c5cc(NC(=O)c6cc(NC(=O)c7nc(NC(=O)c8nc(NC(=O)CCOCCOCCOCCNC(=O)[C@@H](N)CSSC(C)(C)C)cn8C)cn7C)cn6C)cn5C)cn4C)cn3C)cn2C)cn1C |  |  | 9.3 ± 1.6 nM |
